We go through eleven molecules from patent US9133182B2, “Selective androgen receptor modulators” (Radius Health, Inc., priority 2010, dated 2015).

Assay [1] concerns immature, castrated rat (levator ani and bulba cavernous, LABC). Nature of the assay: In vivo rat Herschberger assay, LABC weight. Particulars: once daily oral gavage for 4 days. On the set-up: key: no = no activity observed at highest dose tested.; yes = increased LABC weight relative to castrated vehicle control. The text has this:
In Vivo Rat Model of Androgen and Anabolic Activity-Rat Herschberger Assay
The following is a typical procedure of the in vivo evaluation of the selective androgens of this invention. In particular, this assay looks primarily at the ability of the selective androgens of this invention to increase muscle size in an immature, castrated rat. In addition, androgenic effects are looked at primarily by weighing the prostate and seminal vesicles. Selective compounds will show a greater increase in the levator ani relative to the prostate and seminal vesicles when compared to testosterone treated, castrated animals or to intact animals that have not been treated. Immature Sprague Dawley male rats were obtained Charles River Laboratories (Stoneridge, N.Y.). All animals were maintained in a temperature and humidity controlled room with a 12 hr light: 12 hr dark cycle, with ad lib access to food (TD 291615, Teklad, Madison, Wis.) and water. Rats were anesthetized and orchidectomized (GDX) or sham surgery (SHAM) was performed. After a 7-day recovery period, the animals were randomized according to weight and assigned to treatment groups (n=5), SHAM, OVX+vehicle, OVX+Cpd treated. Testosterone propionate (TP 1 mg/kg in 5% DMSO/95% corn oil) was administered by once daily subcutaneous injections, while the compounds of the invention are dosed in vehicle (0.5% carboxymethylcellulose) was administered by once daily oral gavage. The rats were then dosed once daily for 4 days. All animals were euthanized via carbon dioxide inhalation 24 hs after the last dose. The prostate, seminal vesicle and levator ani and bulba cavernous (LABC) tissues were removed, weighed and recorded. An increase in mean LABC indicates anabolic activity for that particular compound with regard to oral dosing typically at a maximum tested dose of between 1 mg/kg and 30 mg/kg—see Table 1.

Assay [2] deals with androgen receptor (Rattus norvegicus (Rat), UniProt P15207). Nature of the assay: androgen receptor binding assay (fluorescence polarization, Invitrogen). Particulars: AR-Fluormone complex, 4 h at room temperature. Here is the method: The assay was performed as specified by the manufacturer (Invitrogen, Madison, Wis.). Briefly, 1 μl of 10 mM compound was added to 500 μl of AR screening buffer in a 1.5 ml eppendorf tube to make a 2×10^−5M stock. 10-fold serial dilutions of the test compounds were prepared ranging in concentration from 10^−5M to 10^−12M. Each dilution was added in triplicate to a black 384-microtiter plate. The test compounds will be diluted 2-fold in the final reaction. 2×AR-Fluormone™ complex was prepared with 2 nM Flourmone AL Green™ and 30 nM AR. 25 μl of 2×complex was aliquoted to each reaction well, such that the final reaction volume was 50 μl per well. Plate was sealed with a foil cover and incubated in the dark at room temperature for 4 h. Polarization values for each well were measured. The polarization values were plotted against the concentration of the test compound. […] As a control, a competition curve for R1881 (methyltrienolone) was performed for each assay.
androgen receptor, sequence (P15207 651-902): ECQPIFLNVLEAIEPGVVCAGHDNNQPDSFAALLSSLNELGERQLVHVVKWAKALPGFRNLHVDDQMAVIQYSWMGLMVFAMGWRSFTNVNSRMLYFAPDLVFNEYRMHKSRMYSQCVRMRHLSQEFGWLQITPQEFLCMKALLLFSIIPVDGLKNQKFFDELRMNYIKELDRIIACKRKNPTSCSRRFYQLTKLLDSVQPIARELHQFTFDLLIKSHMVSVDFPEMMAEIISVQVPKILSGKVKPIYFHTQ

[3] abbreviates: maximum tested dose between 1 mg/kg and 30 mg/kg, Table 1.

Molecules are shown by their SMILES.

`C[C@@H]1OC(=O)N(c2ccc(C#N)c(Cl)c2)[C@H]1[C@H](O)C(F)(F)F` [Example 21, 2-Chloro-4-((4S,5S)-5-methyl-2-oxo-4-((S)-2,2,2-trifluoro-1-hydroxyethyl)oxazolidin-3-yl)benzonitrile]: the “Oral activity in Herscheberger assay on LABC weight” value (from here on “Oral activity”) in assay [1] (setting [3]) is reported as “yes”. In assay [2] (Table 1), this molecule registered a half-maximal inhibitory concentration (IC50) of 15 nM.

In the case of `CN1C[C@H]([C@H](O)C(F)(F)F)N(c2ccc(C#N)c(C(F)(F)F)c2)C1=O` [Example 25, 4-((R)-5-((S)-2,2,2-trifluoro-1-hydroxyethyl)-3-methyl-2-oxoimidazolidin-1-yl)-2-(trifluoromethyl)benzonitrile], the “Oral activity” value in assay [1] (setting [3]) is reported as “no”. The molecule also registered an IC50 in assay [2] (Table 1) of 10 nM.

With `N#Cc1ccc(N2C(=O)OC[C@H]2[C@H](O)C(F)(F)F)cc1Cl` [Example 9, 2-chloro-4-((S)-2-oxo-4-((S)-2,2,2-trifluoro-1-hydroxyethyl)oxazolidin-3-yl)benzonitrile], the “Oral activity” value in assay [1] (setting [3]) is recorded as “yes”. In addition, the IC50 in assay [2] (Table 1) amounted to 45 nM.

For `Cc1c(N2C(=O)CC[C@@H]2[C@@H](O)C(F)(F)F)ccc(C#N)c1Cl` [Example 30, 2-chloro-4-((R)-2-((R)-2,2,2-trifluoro-1-hydroxyethyl)-5-oxopyrrolidin-1-yl)-3-methylbenzonitrile], the “Oral activity” value in assay [1] (Table 2) is recorded as “no”. The molecule further returned an IC50 in assay [2] (Table 2) of 491 nM.

Take `O=C1CC[C@H]([C@H](O)C(F)(F)F)N1c1ccc(Cl)c(Cl)c1` [Example 27, (R)-1-(3,4-dichlorophenyl)-5-((S)-2,2,2-trifluoro-1-hydroxyethyl)pyrrolidin-2-one]: in assay [1] (Table 2), the “Oral activity” value is “yes”. This molecule also came in with an IC50 in assay [2] (Table 2) of 62 nM.

Consider `N#Cc1ccc(N2C(=O)CC[C@@H]2C(O)C(F)(F)F)cc1Cl` (stereo partly drawn) [Example 31, 2-chloro-4-((R)-2-(2,2,2-trifluoro-1-hydroxyethyl)-5-oxopyrrolidin-1-yl)benzonitrile], for which the “Oral activity” value in assay [1] (Table 2) is reported as “yes”. Moreover, the IC50 in assay [2] (Table 2) worked out at 46 nM.

For the molecule `N#Cc1ccc(N2C(=O)CC[C@@H]2[C@H](O)C(F)(F)F)cc1C(F)(F)F` [Example 1, 4-((R)-2-oxo-5-((S)-2,2,2-trifluoro-1-hydroxyethyl)pyrrolidin-1-yl)-2-(trifluoromethyl)benzonitrile], in assay [1] (setting [3]), the “Oral activity” value is “yes”. In addition, the IC50 in assay [2] (Table 1) came to 14 nM.

As for `CN1C[C@H]([C@@H](O)C(F)(F)F)N(c2ccc(C#N)c(C(F)(F)F)c2)C1=O` [Example 26, 4-((R)-5-((R)-2,2,2-trifluoro-1-hydroxyethyl)-3-methyl-2-oxoimidazolidin-1-yl)-2-(trifluoromethyl)benzonitrile], the “Oral activity” value in assay [1] (setting [3]) is on record as “no”. The molecule also yielded an IC50 in assay [2] (Table 1) of over 1000 nM.

With `N#Cc1ccc(N2C(=O)OC[C@@H]2[C@H](O)C(F)(F)F)cc1C(F)(F)F` [Example 7, 4-((R)-2-oxo-4-((S)-2,2,2-trifluoro-1-hydroxyethyl)oxazolidin-3-yl)-2-(trifluoromethyl)benzonitrile], the “Oral activity” value in assay [1] (setting [3]) was “yes”. The half-maximal inhibitory concentration (IC50) in assay [2] (Table 1) turned out to be 50 nM.

For `Cc1c(N2C(=O)OC[C@@H]2[C@H](O)C(F)(F)F)ccc(C#N)c1Cl` [Example 11, 2-chloro-3-methyl-4-((R)-2-oxo-4-((S)-2,2,2-trifluoro-1-hydroxyethyl)oxazolidin-3-yl)benzonitrile], the “Oral activity” value in assay [1] (setting [3]) is “yes”. In assay [2] (Table 1), this molecule gave an IC50 of 25 nM.

With `Cc1c(N2C(=O)O[C@@H](C)[C@@H]2[C@H](O)C(F)(F)F)ccc(C#N)c1Cl` [Example 17, 2-chloro-3-methyl-4-((4S,5S)-5-methyl-2-oxo-4-((S)-2,2,2-trifluoro-1-hydroxyethyl)oxazolidin-3-yl)benzonitrile], the “Oral activity” value in assay [1] (setting [3]) is on record as “yes”. In addition, the IC50 in assay [2] (Table 1) was 13 nM.
